Literature values in patent EP0502666B2, “Ingestible compositions containing water-soluble, high-viscosity grade cellulose ethers” (THE UNIVERSITY OF MICHIGAN, priority 1991, dated 1992).

## CN(C)C(=N)N=C(N)N [metformin]
In vivo
  patients with side effects that lead to the withdrawal of the drug: ~5%
Usually transient
  patients with gastrointestinal side effects, initially: 5-20%
